Patent US5550110A, “Endothelin Antagonists II” (Warner-Lambert Company, priority 1994, dated 1996)
Peptide text beside a SMILES is read from it.

Tests used:
[1] = molecular target: T1, human ETB receptor (cloned, CHO-K1 cells) (Homo sapiens, UniProt P24530); test: Human Endothelin Receptor Binding Assay-B (hERBA-B), binding to human cloned receptor; details: membranes of transfected CHO-K1 cells
T1 construct: The 1.35 kb HindIII/XbaI restriction fragment of clone 12 of the hETBR was inserted into the eukaryotic expression vector pRcCMV; expressed in transfected cells; host or cells: CHO-K1
T1 sequence (P24530 27-442): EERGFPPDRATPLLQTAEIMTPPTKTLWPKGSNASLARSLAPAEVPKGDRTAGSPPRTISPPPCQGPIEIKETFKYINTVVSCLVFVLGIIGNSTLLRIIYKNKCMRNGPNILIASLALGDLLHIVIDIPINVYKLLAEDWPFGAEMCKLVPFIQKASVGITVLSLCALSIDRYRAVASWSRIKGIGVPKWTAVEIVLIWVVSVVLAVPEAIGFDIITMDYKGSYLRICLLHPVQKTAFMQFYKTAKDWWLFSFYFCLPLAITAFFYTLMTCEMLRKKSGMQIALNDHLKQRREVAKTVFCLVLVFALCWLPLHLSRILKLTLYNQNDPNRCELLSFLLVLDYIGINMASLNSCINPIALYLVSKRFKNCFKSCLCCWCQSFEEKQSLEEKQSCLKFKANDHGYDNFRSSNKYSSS
Description: Human Endothelin Receptor Biding Assay-B (hERBA-B) [^125 I]-ET-1 Binding to Human Cloned Receptor
A human placenta cDNA library was constructed in bacteriophage lambda gt11 and approximately 10^6 plaques were screened with a ^32 P-labelled 1.3 kilobase HindIII/XbaI restriction fragment of rat ETBR cDNA as a probe. Plaque hybridization was carried out for 16 hours at 42° C. in a solution containing 100 μg/mL calf thymus DNA, 1×Denhardt's solution, 5×sodium saline citrate (SSC), 50 mM sodium phosphate, and 0.1% sodium lauryl sulfate (SDS). The membranes were then washed twice for 30 minutes each in 2×SSC and 0.1% SDS at 42° C. A final wash was carried out in 0.5×SSC with 0.1% SDS at 55° C. The positive clones were purified and subcloned into a pUC19 plasmid. DNA sequencing was performed by the dideoxynucleotide chain termination method and human ETBR (h ETBR) was identified by reading both DNA strands.
The 1.35 kb HindIII/XbaI restriction fragment of clone 12 of the hETBR was inserted into the eukaryotic expression vector pRcCMV (pRcCMV-hETBR). CHO-K1 cells were transfected with 20 μg of pRcCMV-hETBR by electroporation at 300 V, 800 μF, low ohms for 1 second. […] Expression levels of human ETBR were determined by the receptor binding assay described below using [^125 I]-ET-3 as the radioligand. […]

[2] = tested on: ETA (rabbit femoral artery); details: ET-1 as agonist, endothelium-denuded rings
Text: (§1) In Vitro Antagonism of ET-1 Stimulated Vasoconstriction in the Rabbit Femoral Artery (ETA) and Sarafotoxin 6c Stimulated Vasoconstriction in the Rabbit Pulmonary Artery (ETB)
(§2) Male New Zealand rabbits were killed by cervical dislocation and exsanguination. Femoral and pulmonary arteries were isolated, cleaned of connective tissue, and cut into 4-mm rings. The endothelium was denuded by placing the rings over hypodermic tubing (32 guage for femoral rings and 28 guage for pulmonary rings, Small Parts, Inc, Miami, Fla.) and gently rolling them. Denuded rings were mounted in 20 mL organ baths containing Krebs-bicarbonate buffer (composition in mM: NaCl, 118.2; NaHCO3, 24.8; KCl, 4.6; MgSO4 7.H2 O, 1.2; KH2 PO4, 1.2; CaCl2.2H2 O; Ca--Na2 EDTA, 0.026; dextrose, 10.0), that was maintained at 37° C. and gassed continuously with 5% CO2 in oxygen (pH 7.4). Resting tension was adjusted to 3.0 g for femoral and 4.0 g pulmonary arteries; the rings were left for 90 minutes to equilibrate.

[3] = molecular target: ETB (rabbit pulmonary artery) (Oryctolagus cuniculus, UniProt Q9N0W7)
Chain of ETB (rabbit pulmonary artery) (Q9N0W7 27-441): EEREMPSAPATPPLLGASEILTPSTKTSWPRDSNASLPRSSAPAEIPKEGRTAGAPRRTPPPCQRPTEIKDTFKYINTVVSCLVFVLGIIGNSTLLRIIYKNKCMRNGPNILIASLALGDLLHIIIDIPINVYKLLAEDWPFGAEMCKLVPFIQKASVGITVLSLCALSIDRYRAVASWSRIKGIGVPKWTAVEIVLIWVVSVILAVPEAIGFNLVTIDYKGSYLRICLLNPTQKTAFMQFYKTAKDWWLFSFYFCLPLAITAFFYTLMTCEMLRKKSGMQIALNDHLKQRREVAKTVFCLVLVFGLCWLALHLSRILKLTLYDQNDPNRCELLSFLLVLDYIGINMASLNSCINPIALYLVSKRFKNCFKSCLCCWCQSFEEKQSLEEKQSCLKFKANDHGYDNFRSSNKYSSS
Text: as §1, §2

[4] = tested on: endothelin receptor, cultured rabbit renal artery vascular smooth muscle cells; test: Inhibition of ET-1 stimulated arachidonic acid release (AAR-A); assay type: cell-based; details: ET-1 0.3 nM
Description: In Vitro Inhibition of ET-1 Stimulated Arachidonic Acid Release in Cultured Rabbit Vascular Smooth Muscle Cells (AAR-A) or CHO Cells Expressing Rat Recombinant ETB Receptor (AAR-B) by Compounds of Formula I
Antagonist activity is measured by the ability of added compounds to reduce endothelin-stimulated arachidonic acid release in cultured vascular smooth muscle cells as arachidonic acid release (AAR). [^3 H] Arachidonic Acid Loading Media (LM) is DME/F12+0.5% fetal calf serum (FCS)×0.25 mCi/mL [^3 H] arachidonic acid (Amersham). Confluent monolayers of cultured rabbit renal artery vascular smooth muscle cells (AAR-A) or CHO cells expressing rat recombinant ETB receptor (AAR-B) were incubated in 0.5 mL of the LM over 18 hours, at 37° C., in 5% CO2. The LM was aspirated and the cells were washed once with the assay buffer (Hank's balanced salt solution [BSS]+10 mM HEPES+fatty acid-free BSA (1 mg/mL)), and incubated for 5 minutes with 1 mL of the prewarmed assay buffer. This solution was aspirated, followed by an additional 1 mL of prewarmed assay buffer, and further incubated for another 5 minutes. A final 5-minute incubation was carried out in a similar manner. The same procedure was repeated with the inclusion of 10 μL of the test compound (1 nM to 1 μM) and 10 μL ET-1 (0.3 nM) and the incubation was extended for 30 minutes. This solution was then collected, […] of scintillation cocktail was added, and the amount of [^3 H] arachidonic acid was determined in a liquid scintillation counter.

SMILES	IC50 [1] [µM]	pA2 Femoral [2]	Kb [3] [µM]	IC50 [4] [µM]
CC[C@H](C)[C@H](NC(=O)[C@H](CC(=O)O)NC(=O)[C@H](CC(C)C)NC(=O)[C@H](NC(C)=O)C1c2ccccc2CCc2ccccc21)C(=O)N[C@H](C(=O)N[C@@H](Cc1c[nH]c2ccccc12)C(=O)O)[C@@H](C)CC [Example 1, Ac-D-Bhg-Leu-Asp-Ile-Ile-Trp] (HELM PEPTIDE1{[ac].[O=C([C@H](N[*:1])C1c2ccccc2CCc2ccccc21)[*:2]].L.D.I.I.W}$$$$V2.0)	0.21	6.8	0.0794	
CC[C@H](C)[C@H](NC(=O)[C@H](CC(=O)O)NC(=O)[C@H](CC(C)C)NC(=O)[C@H](NC(C)=O)C1c2ccccc2CCc2ccccc21)C(=O)N(C)[C@H](C(=O)N[C@@H](Cc1c[nH]c2ccccc12)C(=O)O)[C@@H](C)CC [Example 19, Ac-D-Bhg-Leu-Asp-Ile-N-MeIle-Trp] (HELM PEPTIDE1{[ac].[O=C([C@H](N[*:1])C1c2ccccc2CCc2ccccc21)[*:2]].L.D.I.[meI].W}$$$$V2.0)	0.025	7.3	0.251	0.0043
